Legend:
[1] = test system: Respiratory syncytial virus; assay: Antiviral activity against Respiratory syncytial virus infected African green monkey Vero 76 cells assessed as reduction in plaque number treated after viral infection measured after 5 days by plaque reduction assay; format: functional, organism-based; conditions: human respiratory syncytial virus, 120 h
Poliovirus 1 = assay: Antiviral activity against Human poliovirus 1 strain Sabin infected African green monkey Vero 76 cells assessed as reduction in plaque number treated after viral infection measured after 2 days by plaque reduction assay; format: functional, organism-based; conditions: Enterovirus C, 48 h
[2] = test system: Vesicular stomatitis virus; assay: Antiviral activity against Vesicular stomatitis virus infected African green monkey Vero 76 cells assessed as reduction in plaque number treated after viral infection measured after 2 days by plaque reduction assay; format: functional, organism-based; conditions: 48 h
Coxsackievirus B2 = assay: Antiviral activity against Human coxsackievirus B2 infected in African green monkey Vero 76 cells assessed as reduction in plaque number treated after viral infection measured after 3 days by plaque reduction assay; format: functional, organism-based; conditions: Enterovirus B, 72 h
Vaccinia virus = assay: Antiviral activity against Vaccinia virus infected African green monkey Vero 76 cells assessed as reduction in plaque number treated after viral infection measured after 3 days by plaque reduction assay; format: functional, organism-based; conditions: Orthopoxvirus vaccinia, 72 h
[3] = test system: Bovine viral diarrhea virus 1; assay: Antiviral activity against Bovine viral diarrhea virus 1 infected bovine MDBK cells assessed as protection against virus-induced cytopathogenicity treated 1 hr after viral infection measured after 3-4 days by MTT method; format: functional, organism-based; conditions: Bovine viral diarrhea virus isolates and strains
[4] = test system: Human immunodeficiency virus 1; assay: Antiviral activity against Human immunodeficiency virus 1 infected human MT4 cells assessed as protection against virus-induced cytopathogenicity treated before viral infection measured after 4 days by MTT assay; format: functional, organism-based; conditions: Human immunodeficiency virus 1, MT4, 96 h
[5] = Cytotoxicity against Chlorocebus aethiops (African green monkey) Vero 76 cells assessed as inhibition of cell viability after 48 to 120 hr by MTT assay; format: cell-based; conditions: chlorocebus sabaeus
[6] = Cytotoxicity against Mesocricetus auratus (Syrian golden hamster) BHK21cells assessed as inhibition of cell viability after 48 to 120 hr by MTT assay; format: cell-based; conditions: BHK-21 cells
[7] = Cytotoxicity against Bos taurus (bovine) MDBK cells assessed as inhibition of cell viability after 48 to 120 hr by MTT assay; format: cell-based; conditions: cattle
[8] = Cytotoxicity against Homo sapiens (human) MT4 cells assessed as inhibition of cell vaibility after 96 hr by MTT assay; format: cell-based
Human alphaherpesvirus 1 = assay: Antiviral activity against Human herpesvirus 1 infected African green monkey Vero 76 cells assessed as reduction in plaque number treated after viral infection measured after 3 days by plaque reduction assay; format: functional, organism-based; conditions: Human alphaherpesvirus 1, Vero, 72 h
[9] = test system: Mammalian orthoreovirus 1; assay: Antiviral activity against Mammalian orthoreovirus 1 infected Syrian hamster BHK-21 cells assessed as protection against virus-induced cytopathogenicity treated 1 hr after viral infection measured after 3-4 days by MTT method; format: functional, organism-based; conditions: Mammalian orthoreovirus 1, BHK-21
Yellow fever virus = assay: Antiviral activity against Yellow fever virus infected Syrian hamster BHK-21 cells assessed as protection against virus-induced cytopathogenicity treated 1 hr after viral infection measured after 3-4 days by MTT method; format: functional, organism-based

Structure (SMILES)	EC50 [1]	EC50 (Poliovirus 1)	EC50 [2]	EC50 (Coxsackievirus B2)	EC50 (Vaccinia virus)	EC50 [3]	EC50 [4]	CC50 [5]	CC50 [6]	CC50 [7]	CC50 at 96 h [8]	EC50 (Human alphaherpesvirus 1)	EC50 [9]	EC50 (Yellow fever virus)
Oc1ccc(-c2nnc3nnc4c5ccccc5[nH]c4n23)cc1	> 100 µM	> 100 µM	> 100 µM	> 100 µM	> 100 µM	> 100 µM	> 100 µM	> 100 µM	> 100 µM	> 100 µM	> 100 µM	> 100 µM	> 100 µM	> 100 µM
COc1ccc(-c2nnc3nnc4c5ccccc5[nH]c4n23)cc1OC	> 100 µM	> 100 µM	> 100 µM	> 100 µM	> 100 µM	> 100 µM	> 100 µM	> 100 µM	> 100 µM	> 100 µM	> 100 µM	> 100 µM	55 µM	> 100 µM
COc1ccc(-c2nnc3nnc4c5ccccc5[nH]c4n23)cc1	> 100 µM	> 100 µM	> 100 µM	> 100 µM	> 100 µM	> 100 µM	> 100 µM	> 100 µM	> 100 µM	> 100 µM	> 100 µM	> 100 µM	> 100 µM	> 100 µM
CSc1ccc(-c2nnc3nnc4c5ccccc5[nH]c4n23)cc1	> 90 µM	> 90 µM	> 90 µM	> 90 µM	> 90 µM	> 100 µM	> 100 µM	90 µM	> 100 µM	> 100 µM	> 100 µM	> 90 µM	45 µM	> 100 µM
Brc1cccc(-c2nnc3nnc4c5ccccc5[nH]c4n23)c1	> 100 µM	> 100 µM	> 100 µM	> 100 µM	> 100 µM	> 100 µM	> 100 µM	> 100 µM	> 100 µM	> 100 µM	> 100 µM	> 100 µM	> 100 µM	> 100 µM
Fc1ccc(-c2nnc3nnc4c5ccccc5[nH]c4n23)cc1	> 100 µM	> 100 µM	> 100 µM	> 100 µM	> 100 µM	> 100 µM	> 100 µM	> 100 µM	> 100 µM	> 100 µM	> 100 µM	> 100 µM	> 100 µM	> 100 µM
Clc1ccccc1-c1nnc2nnc3c4ccccc4[nH]c3n12	> 100 µM	> 100 µM	> 100 µM	> 100 µM	> 100 µM	> 100 µM	> 100 µM	> 100 µM	> 100 µM	> 100 µM	> 100 µM	> 100 µM	> 100 µM	> 100 µM
Clc1ccc(-c2nnc3nnc4c5ccccc5[nH]c4n23)cc1	> 100 µM	> 100 µM	> 100 µM	> 100 µM	> 100 µM	> 100 µM	> 100 µM	> 100 µM	> 100 µM	> 100 µM	> 100 µM	> 100 µM	> 100 µM	> 100 µM
O=[N+]([O-])c1cccc(-c2nnc3nnc4c5ccccc5[nH]c4n23)c1	> 100 µM	> 100 µM	> 100 µM	> 100 µM	> 100 µM	> 100 µM	> 100 µM	> 100 µM	> 100 µM	> 100 µM	> 100 µM	> 100 µM	> 100 µM	> 100 µM
O=[N+]([O-])c1ccc(-c2nnc3nnc4c5ccccc5[nH]c4n23)cc1	> 100 µM	> 100 µM	> 100 µM	> 100 µM	> 100 µM	> 100 µM	> 100 µM	> 100 µM	> 100 µM	> 100 µM	> 100 µM	> 100 µM	> 100 µM	> 100 µM
c1ccc(-c2nnc3nnc4c5ccccc5[nH]c4n23)cc1	> 100 µM	> 100 µM	> 100 µM	> 100 µM	> 100 µM	> 100 µM	> 100 µM	> 100 µM	> 100 µM	> 100 µM	> 100 µM	> 100 µM	> 100 µM	> 100 µM
O=[N+]([O-])c1ccccc1-c1nnc2nnc3c4ccccc4[nH]c3n12	> 100 µM	> 100 µM	> 100 µM	100 µM	> 100 µM	> 100 µM	> 100 µM	> 100 µM	> 100 µM	> 100 µM	> 100 µM	> 100 µM	> 100 µM	> 100 µM
c1ccc(Oc2cccc(-c3nnc4nnc5c6ccccc6[nH]c5n34)c2)cc1	> 80 µM	> 80 µM	> 80 µM	> 80 µM	> 80 µM	> 100 µM	> 100 µM	80 µM	100 µM	> 100 µM	> 100 µM	> 80 µM	> 100 µM	> 100 µM
COc1ccc(OC)c(-c2nnc3nnc4c5ccccc5[nH]c4n23)c1	> 15 µM	> 15 µM	> 15 µM	> 15 µM	> 15 µM	> 12 µM	> 4 µM	15 µM	30 µM	12 µM	4 µM	> 15 µM	> 30 µM	> 30 µM
COc1cccc(-c2nnc3nnc4c5ccccc5[nH]c4n23)c1	> 65 µM	> 65 µM	> 65 µM	> 65 µM	> 65 µM	> 64 µM	> 47 µM	65 µM	> 100 µM	64 µM	47 µM	> 65 µM	> 100 µM	> 100 µM
COc1ccccc1-c1nnc2nnc3c4ccccc4[nH]c3n12	> 20 µM	> 20 µM	> 20 µM	> 20 µM	> 20 µM	> 17 µM	> 5 µM	20 µM	23 µM	17 µM	5 µM	> 20 µM	> 23 µM	> 23 µM
Oc1ccccc1-c1nnc2nnc3c4ccccc4[nH]c3n12	> 70 µM	> 70 µM	> 70 µM	> 70 µM	> 70 µM	> 100 µM	> 100 µM	70 µM	> 100 µM	> 100 µM	> 100 µM	> 70 µM	> 100 µM	> 100 µM
Oc1cccc(-c2nnc3nnc4c5ccccc5[nH]c4n23)c1	> 100 µM	> 100 µM	> 100 µM	> 100 µM	> 100 µM	> 100 µM	> 100 µM	> 100 µM	> 100 µM	> 100 µM	> 100 µM	> 100 µM	> 100 µM	> 100 µM
Cc1ccc(-c2nnc3nnc4c5ccccc5[nH]c4n23)cc1	> 100 µM	> 100 µM	> 100 µM	> 100 µM	> 100 µM	> 100 µM	> 100 µM	≥ 100 µM	> 100 µM	> 100 µM	> 100 µM	> 100 µM	> 100 µM	> 100 µM
C[C@@]1(O)[C@H](O)[C@@H](CO)O[C@H]1n1cnc2c(=O)[nH]c(N)nc21 [2'-B-METHYL-GUANOSINE]						1.8 µM								2.5 µM
C#C[C@@]1(O)[C@H](O)[C@@H](CO)O[C@H]1n1ccc(N)nc1=O [2'-ETHYNYL-D-CYTIDINE]		18 µM		23 µM										
COc1c(C)c2c(c(O)c1C/C=C(\C)CCC(=O)O)C(=O)OC2 [MYCOPHENOLIC ACID]					1.8 µM									
Cc1cn([C@H]2C[C@H](N=[N+]=[N-])[C@@H](CO)O2)c(=O)[nH]c1=O [ZIDOVUDINE]							0.01 µM							

From ChEMBL document CHEMBL3046811, “Syntheses and in vitro biological screening of 1-aryl-10H-[1,2,4]triazolo[3,4:3,4][1,2,4]triazino[5,6-b]indoles” (Med Chem Res, 2013)
